In patent US20210260010A1, “COMPOSITIONS AND METHODS FOR THE REDUCTION OR TREATMENT OF INFLAMMATION” (AXCELLA HEALTH INC., priority 2018, published 2021):

Assays:
Assay type in all cases: cell-based
IL-6 = assay: LPS-induced IL-6 secretion in primary human monocyte-derived macrophages (ELISA); conditions: for IL-6 Measurements Mean: LPS 0.15 ng/mL, baseline subtracted; for LPS-induced IL-6 secretion: macrophages, 0.15 ng/mL LPS
Experimental: (§1) Unpurified buffy coats (Research Blood Components) were carefully poured into 50 mL centrifuge tubes and diluted with room temperature Dulbecco's Phosphate Buffered Saline (dPBS) with Calcium and Magnesium (Gibco). Diluted buffy coats were further divided into four total 50 mL centrifuge tubes at 20 mL per tube. Lymphocyte Separation Medium (Corning) was carefully pipetted to the bottom of each centrifuge tube. Mixtures were centrifuged at 850× g for 32 minutes at 20° C. with 0 deceleration and acceleration.
(§2) The PBMC layer was separated from other components after centrifugation and added to new 50 mL centrifuge tube containing 25 mL dPBS. Total volume was brought up to 50 mL with dPBS and centrifuged at 600×g for 10 minutes at 20° C. with acceleration of 9, deceleration of 5. Supernatant was carefully removed from cell pellets. The cell pellets were resuspended using 10 mL dPBS. Total volume was then brought up to 50 mL using dPBS and centrifuged at 450×g for 5 min at 20° C. with acceleration of 9, deceleration of 9. The supernatant removal and cell pellet resuspension was repeated again.
(§3) The supernatant was then carefully removed from cell pellets. Cell pellets were resuspended in 10 mL dPBS without calcium or magnesium and filtered through a 70 uM cell strainer. The total PBMC number was determined using a Cellometer K2 automated cell counter. A total of 5E6 cells were saved for flow cytometric analysis. Remaining cells were centrifuged at 490×g for 5 minutes at 20° C. with acceleration of 9, deceleration of 9.
(§4) CD14+ cells were selected using EasySep™ Human CD14 Positive Selection Kit II ([…] Technologies). Cells were resuspended in cold EasySep™ Buffer ([…] Technologies) at 1×10^8 cells/mL. A total of 100 uL/mL EasySep™ Human CD14 Positive Selection Cocktail II was added to the cell suspension, mixed, and incubated at room temperature for 10 minutes. A total of 100 uL/mL RapidSpheres were added to the mixture and incubated at room temperature for 3 minutes after mixing, then RoboSep buffer was added to bring up the total volume to 10 mL. The mixture in a 15 mL tube was placed in magnet and incubated at room temperature for 3 minutes. Supernatant was discarded and 10 mL fresh EasySep™ buffer was added to 15 mL tube. The addition of RoboSep buffer, mixing, and discarding of supernatant was repeated two more times.
(§5) Negative and positive fractions were centrifuged at 490×g for 5 minutes at 20° C. with acceleration of 9, deceleration of 9, and resuspended in DMEM (Gibco) and 10% Heat Inactivated Fetal Bovine Serum (Atlanta Bio) and Penicillin/Streptomycin. Cells were counted and centrifuged again at 490× g for 5 minutes at 20° C. with acceleration of 9, deceleration of 9. After centrifugation, cell were resuspended in DMEM (Gibco) and 10% Heat Inactivated Fetal Bovine Serum (Atlanta Bio) and Penicillin/Streptomycin containing 500 U/mL […] and plated at 1-2×10^6 cells/mL on 10 cm tissue culture plates. Cells were kept in 37° C., 5% CO2 in between feedings/harvest.
(§6) Cells were fed every 3-4 days by removing media and unattached cells, centrifuging at 490× g for 5 minutes at 20° C. with acceleration of 9, deceleration of 9, and resuspending in fresh DMEM (Gibco) and 10% Heat Inactivated Fetal Bovine Serum (Atlanta Bio) and Penicillin/Streptomycin containing GM-CSF. Resuspended cells were seeded back onto 10 cm tissue culture plates and incubated at 37° C., 5% CO2. Differentiated macrophages were used for subsequent experiments.
(§7) Primary human PMBC derived macrophages were seeded on day 0 at 3.0E4 cells per well in 96-well microplates (ThermoFisher) in Dulbecco's Modified Eagle Medium (DMEM) (Gibco) supplemented with penicillin-streptomycin (Hyclone) and 10% heat inactivated fetal bovine serum (HI-FBS) (Atlanta Bio) and incubated overnight at 37° C., 5% CO2. On day 1, cells were washed once with 150 uL per well DPBS (Gibco) and treated with 75 uL of: • a. […]

TNFα = assay: LPS-induced TNFα secretion in primary human monocyte-derived macrophages (ELISA); set-up: TNFa Measurements Mean: unit not given here; conditions: for TNFa Measurements Mean: Donor 1, LPS 0.15 ng/mL; for TNFa Measurements Mean / Donor 2 TNFa Measurements Mean / Donor 3 TNFa Measurements Mean: baseline subtracted; for LPS-induced TNFα secretion: macrophages, 0.15 ng/mL LPS
Experimental: as §1, §2, §3, §4, §5, §6, §7

MCP-1 = MCP-1 chemokine secretion by TNFα-stimulated primary human hepatic stellate cells (ELISA)
Experimental: Primary human hepatic stellate cells were obtained from Samsara Sciences and grown in Complete HSC Medium to […] confluence in T75 or T150 flasks below passage 10 were seeded into 96-well plates and incubated for 6 hours at 37° C., 5% CO2 in a humidified incubator. After 6 hours, plates were removed from the incubator washed with DPBS and pretreated (±single amino acid dropout, ±supplemental amino acid dose; see experiment for medium composition) overnight, ˜14-15 hours. After overnight pretreatment, the medium was removed from the cells, and the same pretreatment medium, now supplemented with 3 ng/mL TNFα was applied. Plates were incubated for 12 hours at 37° C., 5% CO2. After 12 hour stimulus with TNFα, supernatant was removed and frozen at −80° C. in two separate aliquots. Plates were washed and incubated with CCK-8 viability reagent (Dojindo) for 1 hour. Viability was measured on the Synergy plate reader. Immediately, the medium was removed and the plates were fixed for immunofluorescence staining.
Human CCL2/MCP1 and Human IL-6 were measured by ELISA (Human […] DuoSet ELISA, R&D Systems; Human IL-6 DuoSet ELISA, R&D Systems) at ⅕ and 1/20 dilution in 1× Reagent Diluent (Reagent Ancillary Kit 2, R&D Systems). Data were normalized to the specific per well cell density determined by Hoechst stained nuclei count.
Tables 35-38 show per-cell normalized MCP-1 chemokine secretion in primary human hepatic stellate cells from two donors as a fold change from the plasma amino acid background. Statistical significance calculated by one-way ANOVA with Dunnett's multiple comparison test within each treatment group.

[1] = Donor 2, Conc. 749 μM (baseline)
[2] = Donor 3, Conc. 749 μM (baseline)
[3] = Donor 2, Conc. 66 μM (baseline)

NC(=O)CC[C@H](N)C(=O)O [Glutamine, L-Glutamine]
IL-6 Measurements Mean (IL-6; Donor 1, Conc. 749 μM (baseline)): 0
IL-6 Measurements Mean (IL-6; Donor 1, Conc. 3747 μM): 291.5443
IL-6 Measurements Mean (IL-6; Donor 1, Conc. 11242 μM): 397.1745
IL-6 Measurements Mean (IL-6; Donor 1, Conc. 22484 μM): 440.1437
IL-6 Measurements Mean (IL-6; [1]): 2.37E−15
IL-6 Measurements Mean (IL-6; Donor 2, Conc. 3747 μM): 22.52
IL-6 Measurements Mean (IL-6; Donor 2, Conc. 11242 μM): 63.31
IL-6 Measurements Mean (IL-6; Donor 2, Conc. 22484 μM): 34.39
IL-6 Measurements Mean (IL-6; [2]): 3.79E−14
IL-6 Measurements Mean (IL-6; Donor 3, Conc. 3747 μM): 25.35
IL-6 Measurements Mean (IL-6; Donor 3, Conc. 11242 μM): 98.4903
IL-6 Measurements Mean (IL-6; Donor 3, Conc. 22484 μM): 108.5158
LPS-induced IL-6 secretion (IL-6; Donor 1): increased
LPS-induced IL-6 secretion (IL-6; Donor 2): increased
LPS-induced IL-6 secretion (IL-6; Donor 3): significantly increased
TNFa Measurements Mean (TNFα; Conc. 749 μM (baseline)): 0
TNFa Measurements Mean (TNFα; Conc. 3747 μM): −45.7
TNFa Measurements Mean (TNFα; Conc. 11242 μM): −65.24
TNFa Measurements Mean (TNFα; Conc. 22484 μM): −103.07
Donor 2 TNFa Measurements Mean (TNFα; [1]): −9.5E−15
Donor 2 TNFa Measurements Mean (TNFα; Donor 2, Conc. 3747 μM): 9.338
Donor 2 TNFa Measurements Mean (TNFα; Donor 2, Conc. 11242 μM): 20.04
Donor 2 TNFa Measurements Mean (TNFα; Donor 2, Conc. 22484 μM): 11.5
Donor 3 TNFa Measurements Mean (TNFα; [2]): 0
Donor 3 TNFa Measurements Mean (TNFα; Donor 3, Conc. 3747 μM): 1.936
Donor 3 TNFa Measurements Mean (TNFα; Donor 3, Conc. 11242 μM): 18
Donor 3 TNFa Measurements Mean (TNFα; Donor 3, Conc. 22484 μM): 29.14
LPS-induced TNFα secretion (TNFα; Donor 2): increased
LPS-induced TNFα secretion (TNFα; Donor 3): increased
Fold Change MCP1 Secretion Normalized Per Cell (MCP-1; donor 3, Conc. 562 μM (plasma background, reference)): 1.0000
Fold Change MCP1 Secretion Normalized Per Cell (MCP-1; donor 3, Conc. 749 μM): 0.7048
Fold Change MCP1 Secretion Normalized Per Cell (MCP-1; donor 3, Conc. 3747 μM): 0.6036
Fold Change MCP1 Secretion Normalized Per Cell (MCP-1; donor 3, Conc. 11242 μM): 0.6106
Fold Change MCP1 Secretion Normalized Per Cell (MCP-1; donor 3, Conc. 22484 μM): 0.6212
Fold Change MCP1 Secretion Normalized Per Cell (MCP-1; donor 4, Conc. 562 μM (plasma background, reference)): 1.0000
MCP-1 chemokine secretion, per-cell normalized, fold change from plasma amino acid background (MCP-1; primary human hepatic stellate cells, two donors, TNFα 3 ng/mL, 12 hours): reduced MCP1 secretion in both donors but was only statistically significant in one of two donors

CC[C@H](C)[C@H](N)C(=O)O [Isoleucine, L-Isoleucine]
IL-6 Measurements Mean (IL-6; Donor 1, Conc. 66 μM (baseline)): 0
IL-6 Measurements Mean (IL-6; Donor 1, Conc. 1328 μM): 25.98
IL-6 Measurements Mean (IL-6; Donor 1, Conc. 3320 μM): −15.8843
IL-6 Measurements Mean (IL-6; Donor 1, Conc. 6639 μM): −218.332
IL-6 Measurements Mean (IL-6; [3]): 0
IL-6 Measurements Mean (IL-6; Donor 2, Conc. 1328 μM): −2.318
IL-6 Measurements Mean (IL-6; Donor 2, Conc. 3320 μM): 2.305
IL-6 Measurements Mean (IL-6; Donor 2, Conc. 6639 μM): −1.774
IL-6 Measurements Mean (IL-6; Donor 3, Conc. 66 μM): −6.69
IL-6 Measurements Mean (IL-6; Donor 3, Conc. 1328 μM): −28.9897
IL-6 Measurements Mean (IL-6; Donor 3, Conc. 3320 μM): 0
IL-6 Measurements Mean (IL-6; Donor 3, Conc. 6639 μM): −16.3663
TNFa Measurements Mean (TNFα; Conc. 66 μM (baseline)): 0
TNFa Measurements Mean (TNFα; Conc. 1328 μM): −42.68
TNFa Measurements Mean (TNFα; Conc. 3320 μM): −96.3
TNFa Measurements Mean (TNFα; Conc. 6639 μM): −40.95
Donor 2 TNFa Measurements Mean (TNFα; [3]): 4.74E−15
Donor 2 TNFa Measurements Mean (TNFα; Donor 2, Conc. 1328 μM): 2.919
Donor 2 TNFa Measurements Mean (TNFα; Donor 2, Conc. 3320 μM): 10.26
Donor 2 TNFa Measurements Mean (TNFα; Donor 2, Conc. 6639 μM): 19.26
Donor 3 TNFa Measurements Mean (TNFα; Donor 3, Conc. 66 μM (baseline)): −2.4E−15
Donor 3 TNFa Measurements Mean (TNFα; Donor 3, Conc. 1328 μM): −6.23
Donor 3 TNFa Measurements Mean (TNFα; Donor 3, Conc. 3320 μM): 3.309
Donor 3 TNFa Measurements Mean (TNFα; Donor 3, Conc. 6639 μM): −1.66
LPS-induced TNFα secretion (TNFα; Donor 2): increased
Fold Change MCP1 Secretion Normalized Per Cell (MCP-1; donor 3, Conc. 66 μM (plasma background, reference)): 1.0000
Fold Change MCP1 Secretion Normalized Per Cell (MCP-1; donor 3, Conc. 1328 μM): 1.5550
Fold Change MCP1 Secretion Normalized Per Cell (MCP-1; donor 3, Conc. 3320 μM): 1.2169
Fold Change MCP1 Secretion Normalized Per Cell (MCP-1; donor 3, Conc. 6639 μM): 1.2084
Fold Change MCP1 Secretion Normalized Per Cell (MCP-1; donor 4, Conc. 66 μM (plasma background, reference)): 1.0000
